Experimental data from patent US20080194585A1, “Fungicidal Pyrazine Derivatives” (priority 2005, published 2008).
Like-named read-outs stand apart in the source and are kept apart here. Marks after values point to notes of the source that are not given here.

Key:
Plasmopara viticola = assay: Test D: grape downy mildew, spray after inoculation of grape seedlings; format: in vivo; details: 100 = 100% disease control; for pest or weed control at 200 ppm: Plasmopara viticola, 168 h, read-out: Test D disease control rating
From the text: Upon removal, disease ratings were made. […] A dash (-) indicates no test results.

Phytophthora infestans = assay: whole plant or invertebrate; format: in vivo; details: for pest or weed control at 200 ppm: Phytophthora infestans, in Solanum lycopersicum, topical, 144 h, read-out: Test F disease control rating; for Test F disease control rating: 100 = 100% disease control
Septoria tritici = assay: Test J: wheat leaf blotch, preventive spray on wheat seedlings; format: in vivo; details: 100 = 100% disease control, 0 = no control; for Test J disease control rating / pest or weed control at 40 ppm: 40 ppm (marked *)
From the text: A dash (-) indicates no test results.

fusarium graminearium = assay: Test I: wheat head scab, preventive spray on wheat seedlings; details: 100 = 100% disease control; for pest or weed control at 200 ppm: Fusarium, in Triticum aestivum, topical, 192 h, read-out: Test I disease control rating, 200 ppm
Procedure: (the causal agent of wheat head scab) and incubated in a saturated atmosphere at 20° C. for 72 h, and then moved to a growth chamber at 22° C. for 5 days, after which disease ratings were made.

[1] = tested on: Puccinia recondita f. sp. tritici; assay: Test K: wheat leaf rust, preventive spray on wheat seedlings
Septoria nodorum = assay: Test H: wheat glum blotch, preventive spray on wheat seedlings; details: 100 = 100% disease control; for pest or weed control at 200 ppm: read-out: Test H disease control rating, 200 ppm; for Test H disease control rating: 40 ppm (marked *)
Procedure: (the causal agent of wheat glum blotch) and incubated in a saturated atmosphere at 20° C. for 48 h, and then moved to a growth chamber at 22° C. for 5 days, after which disease ratings were made.

[2] = tested on: Erysiphe graminis f. sp. tritici; assay: Test L: wheat powdery mildew, preventive spray on wheat seedlings; details: 100 = 100% disease control; for pest or weed control at 200 ppm: read-out: Test L disease control rating, 200 ppm; for Test L disease control rating: 40 ppm (marked *)
Pythium aphanidermatum = assay: Test A: bluegrass pythium blight, preventive spray on bluegrass seedlings; details: for pest or weed control at 200 ppm: Pythium aphanidermatum, 120 h, read-out: Test A disease control rating; for Test A disease control rating: 100 = 100% disease control
Rhizoctonia oryzae = assay: Test G: turf brown patch, preventive spray on creeping bent grass seedlings; details: 100 = 100% disease control; for pest or weed control at 200 ppm: read-out: Test G disease control rating, 200 ppm; for Test G disease control rating: 40 ppm (marked *)
Procedure: (the causal agent of turf brown patch) and incubated in a saturated atmosphere at 27° C. for 24 h, and then moved to a growth chamber at 27° C. for 5 days, after which disease ratings were made.

[3] = tested on: Colletotrichum orbiculare; assay: Test B: cucumber Colletotrichum anthracnose, preventive spray on cucumber seedlings; details: 100 = 100% disease control; for pest or weed control at 200 ppm: read-out: Test B disease control rating, 200 ppm; for Test B disease control rating: 40 ppm (marked *)
Botrytis cinerea = assay: Test E: tomato botrytis, preventive spray on tomato seedlings; details: for Test E disease control rating: 40 ppm (marked *), 100 = 100% disease control, 0 = no control
[4] = 40 ppm (marked *), 0 = no control
[5] = 200 ppm, 0 = no control relative to controls
[6] = Zymoseptoria tritici, 528 h, read-out: Test J disease control rating
[7] = 0 = no control relative to controls
[8] = Botrytis cinerea, in Solanum lycopersicum, topical, 72 h, read-out: Test E disease control rating

CC(C)Cn1c(-c2c(F)cccc2F)cnc(-n2cccn2)c1=O [Compound 342, 6-(2,6-Difluorophenyl)-1-(2-methylpropyl)-3-(1H-pyrazol-1-yl)-2(1H)-pyrazinone]
pest or weed control at 200 ppm (Plasmopara viticola; 200 ppm, 0 = no control): 0%
pest or weed control at 200 ppm (Phytophthora infestans): 0%
pest or weed control at 200 ppm (Septoria tritici; Zymoseptoria tritici, 528 h, 200 ppm, read-out: Test J disease control rating): 82%
pest or weed control at 200 ppm (fusarium graminearium; 0 = no control): 0%
pest or weed control at 200 ppm ([1]; Puccinia recondita, in Triticum aestivum, 192 h, read-out: Test K disease control rating): 98%
pest or weed control at 200 ppm (Septoria nodorum; Parastagonospora nodorum, in Triticum aestivum, topical, 168 h, 0 = no control): 0%
pest or weed control at 200 ppm ([2]; Blumeria graminis, in Triticum aestivum, 168 h, 0 = no control): 96%
pest or weed control at 200 ppm (Pythium aphanidermatum): 0%
pest or weed control at 200 ppm (Rhizoctonia oryzae; Waitea circinata, in Agrostis stolonifera, topical, 144 h, 0 = no control): 95%
pest or weed control at 200 ppm ([3]; Colletotrichum orbiculare, in Cucumis sativus, 144 h, 0 = no control): 0%

Nn1c(-c2c(F)cccc2F)c(Cl)nc(-n2cccn2)c1=O [Compound 400, 1-Amino-5-chloro-6-(2,6-difluorophenyl)-3-(1H-pyrazol-1-)-2(1H)-pyrazinone]
Test D disease control rating (Plasmopara viticola; [4]): 0* %
Test F disease control rating (Phytophthora infestans; [4]): 0* %
Test J disease control rating (Septoria tritici): 0* %
Test I disease control rating (fusarium graminearium; [4]): 0* %
Test E disease control rating (Botrytis cinerea): 0* %
Test H disease control rating (Septoria nodorum; 0 = no control): 0* %
Test A disease control rating (Pythium aphanidermatum; [4]): 0* %
Test G disease control rating (Rhizoctonia oryzae; 0 = no control): 0* %
Test B disease control rating ([3]; 0 = no control): 0* %

NC(=O)c1nc(Cl)c(-c2c(F)cc(F)cc2F)n(-c2cccc(F)c2)c1=O [Compound 414, 6-Chloro-4-(3-fluorophenyl)-3,4-dihydro-3-oxo-5-(2,4,6-trifluorophenyl)pyrazinecarboxamide]
pest or weed control at 200 ppm (Plasmopara viticola; [5]): 40%
pest or weed control at 200 ppm (Phytophthora infestans): 85%
pest or weed control at 40 ppm (Septoria tritici; [6]): 97%
pest or weed control at 200 ppm (fusarium graminearium; [7]): 35%
pest or weed control at 40 ppm (Botrytis cinerea; [8]): 99%
pest or weed control at 40 ppm (Septoria nodorum; Parastagonospora nodorum, in Triticum aestivum, topical, 168 h, read-out: Test H disease control rating, 40 ppm (marked *), 0 = no control): 0%
pest or weed control at 40 ppm ([2]; Blumeria graminis, in Triticum aestivum, 168 h, read-out: Test L disease control rating, 40 ppm (marked *), 0 = no control): 98%
pest or weed control at 200 ppm (Pythium aphanidermatum): 95%
pest or weed control at 40 ppm (Rhizoctonia oryzae; Waitea circinata, in Agrostis stolonifera, topical, 144 h, read-out: Test G disease control rating, 40 ppm (marked *), 0 = no control): 0%
pest or weed control at 40 ppm ([3]; Colletotrichum orbiculare, in Cucumis sativus, 144 h, read-out: Test B disease control rating, 40 ppm (marked *), 0 = no control): 0%

CCC(C)Cn1c(-c2ccc(F)cc2F)c(C)nc(C#N)c1=NC(C)=O (centres unmarked) [Compound 430, N-[3-Cyano-6-(2,4-difluorophenyl)-5-methyl-1-(2-methylbutyl)-2(1H)-pyrazinylidene]acetamide]
pest or weed control at 200 ppm (Plasmopara viticola; [5]): 0%
pest or weed control at 200 ppm (Phytophthora infestans): 0%
pest or weed control at 40 ppm (Septoria tritici; [6]): 86%
pest or weed control at 200 ppm (fusarium graminearium; [7]): 0%
pest or weed control at 200 ppm (Botrytis cinerea; [8]): 96%
pest or weed control at 200 ppm (Septoria nodorum; Parastagonospora nodorum, in Triticum aestivum, topical, 168 h, 0 = no control relative to controls): 0%
pest or weed control at 200 ppm ([2]; Blumeria graminis, in Triticum aestivum, 168 h, 0 = no control relative to controls): 93%
pest or weed control at 200 ppm (Pythium aphanidermatum): 0%
pest or weed control at 200 ppm (Rhizoctonia oryzae; Waitea circinata, in Agrostis stolonifera, topical, 144 h, 0 = no control relative to controls): 0%
pest or weed control at 200 ppm ([3]; Colletotrichum orbiculare, in Cucumis sativus, 144 h, 0 = no control relative to controls): 0%

O=c1c(-n2cccn2)nc(Cl)c(-c2c(F)cccc2F)n1Cc1ccccc1F [compound 330]
Test D disease control rating (Plasmopara viticola; [4]): 0* %
Test F disease control rating (Phytophthora infestans; [4]): 0* %
Test J disease control rating (Septoria tritici): 100* %
Test I disease control rating (fusarium graminearium; [4]): 0* %
Test K disease control rating ([1]; 40 ppm (marked *), 100 = 100% disease control, 0 = no control): 100* %
Test H disease control rating (Septoria nodorum; 0 = no control): 99* %
Test L disease control rating ([2]; 0 = no control): 71* %
Test A disease control rating (Pythium aphanidermatum; [4]): 0* %
Test G disease control rating (Rhizoctonia oryzae; 0 = no control): 41* %
Test B disease control rating ([3]; 0 = no control): 0* %

O=c1c(-n2cccn2)nc(Cl)c(-c2c(F)cccc2F)n1-c1ccc(F)c(F)c1 [compound 388]
Test D disease control rating (Plasmopara viticola; [4]): 0* %
Test F disease control rating (Phytophthora infestans; [4]): 0* %
Test J disease control rating (Septoria tritici): 100* %
Test I disease control rating (fusarium graminearium; [4]): 0* %
Test E disease control rating (Botrytis cinerea): 99* %
Test H disease control rating (Septoria nodorum; 0 = no control): 97* %
Test L disease control rating ([2]; 0 = no control): 0* %
Test A disease control rating (Pythium aphanidermatum; [4]): 0* %
Test G disease control rating (Rhizoctonia oryzae; 0 = no control): 0* %
Test B disease control rating ([3]; 0 = no control): 67* %

Cc1ccn(-c2nc(Cl)c(-c3c(F)cccc3F)n(-c3ccc(F)c(F)c3)c2=O)n1 [compound 389]
Test D disease control rating (Plasmopara viticola; [4]): 0* %
Test F disease control rating (Phytophthora infestans; [4]): 0* %
Test J disease control rating (Septoria tritici): 100* %
Test I disease control rating (fusarium graminearium; [4]): 0* %
Test E disease control rating (Botrytis cinerea): 99* %
Test H disease control rating (Septoria nodorum; 0 = no control): 94* %
Test L disease control rating ([2]; 0 = no control): 0* %
Test A disease control rating (Pythium aphanidermatum; [4]): 0* %
Test G disease control rating (Rhizoctonia oryzae; 0 = no control): 31* %
Test B disease control rating ([3]; 0 = no control): 98* %

Cc1ccn(-c2nc(Cl)c(-c3c(F)cc(F)cc3F)n(-c3ccc(F)cc3)c2=O)n1 [compound 409]
Test D disease control rating (Plasmopara viticola; [4]): 0* %
Test F disease control rating (Phytophthora infestans; [4]): 0* %
Test J disease control rating (Septoria tritici): 99* %
Test I disease control rating (fusarium graminearium; [4]): 0* %
Test E disease control rating (Botrytis cinerea): 99* %
Test H disease control rating (Septoria nodorum; 0 = no control): 99* %
Test L disease control rating ([2]; 0 = no control): 60* %
Test G disease control rating (Rhizoctonia oryzae; 0 = no control): 24* %
Test B disease control rating ([3]; 0 = no control): 98* %

O=c1c(-n2cccn2)nc(Cl)c(-c2c(F)cc(F)cc2F)n1-c1cc(F)c(F)c(F)c1 [compound 410]
Test D disease control rating (Plasmopara viticola; [4]): 0* %
Test F disease control rating (Phytophthora infestans; [4]): 0* %
Test J disease control rating (Septoria tritici): 98* %
Test I disease control rating (fusarium graminearium; [4]): 0* %
Test E disease control rating (Botrytis cinerea): 99* %
Test H disease control rating (Septoria nodorum; 0 = no control): 99* %
Test L disease control rating ([2]; 0 = no control): 0* %
Test G disease control rating (Rhizoctonia oryzae; 0 = no control): 17* %
Test B disease control rating ([3]; 0 = no control): 97* %

Cc1ccn(-c2nc(Cl)c(-c3c(F)cc(F)cc3F)n(-c3cc(F)c(F)c(F)c3)c2=O)n1 [compound 411]
Test D disease control rating (Plasmopara viticola; [4]): 0* %
Test F disease control rating (Phytophthora infestans; [4]): 0* %
Test J disease control rating (Septoria tritici): 98* %
Test I disease control rating (fusarium graminearium; [4]): 0* %
Test E disease control rating (Botrytis cinerea): 99* %
Test H disease control rating (Septoria nodorum; 0 = no control): 99* %
Test L disease control rating ([2]; 0 = no control): 87* %
Test G disease control rating (Rhizoctonia oryzae; 0 = no control): 16* %
Test B disease control rating ([3]; 0 = no control): 98* %

CCn1c(-c2ccc(F)cc2Cl)c(Cl)nc(C(N)=O)c1=O [compound 412]
Test D disease control rating (Plasmopara viticola; [5]): 16%
Test F disease control rating (Phytophthora infestans; [5]): 9%
Test J disease control rating (Septoria tritici): 0* %
Test I disease control rating (fusarium graminearium; [5]): 0%
Test E disease control rating (Botrytis cinerea): 29* %
Test H disease control rating (Septoria nodorum; 0 = no control): 0* %
Test L disease control rating ([2]; 0 = no control): 0* %
Test G disease control rating (Rhizoctonia oryzae; 0 = no control): 0* %
Test B disease control rating ([3]; 0 = no control): 0* %

CCCn1c(-c2c(F)cc(F)cc2F)c(Cl)nc(C(N)=O)c1=O [compound 413]
Test D disease control rating (Plasmopara viticola; [5]): 64%
Test F disease control rating (Phytophthora infestans; [5]): 95%
Test J disease control rating (Septoria tritici): 93* %
Test I disease control rating (fusarium graminearium; [5]): 0%
Test E disease control rating (Botrytis cinerea): 99* %
Test H disease control rating (Septoria nodorum; 0 = no control): 99* %
Test L disease control rating ([2]; 0 = no control): 98* %
Test A disease control rating (Pythium aphanidermatum; [5]): 68%
Test G disease control rating (Rhizoctonia oryzae; 0 = no control): 0* %
Test B disease control rating ([3]; 0 = no control): 0* %

CCC(C)Cn1c(-c2c(F)cc(F)cc2F)c(Cl)nc(C(N)=O)c1=O (centres unmarked) [compound 415]
Test D disease control rating (Plasmopara viticola; [5]): 95%
Test F disease control rating (Phytophthora infestans; [5]): 99%
Test J disease control rating (Septoria tritici): 95* %
Test I disease control rating (fusarium graminearium; [5]): 0%
Test E disease control rating (Botrytis cinerea): 99* %
Test H disease control rating (Septoria nodorum; 0 = no control): 100* %
Test L disease control rating ([2]; 0 = no control): 99* %
Test A disease control rating (Pythium aphanidermatum; [5]): 86%
Test G disease control rating (Rhizoctonia oryzae; 0 = no control): 0* %
Test B disease control rating ([3]; 0 = no control): 91* %
